# Measured values as given in patent US20160067221A1, “USE OF ERGOTHIONEINE FOR INDUCING ACTIVITY OF NRF2 IN CELL” (China Medical University, priority 2014, published 2016).
# Assays:
# Format in all cases: cell-based, human
# [1] = test system: UVA-irradiated HaCaT cells; assay: Intracellular ROS generation (HDCF-DA / DCF fluorescence)
# Protocol: An exposure of the UVA will stimulate cells generating ROS. […] The HDCF-DA is a lipid-soluble fluorescent dye and has a cell membrane permeability. The HDCF-DA will bind to intracellular esterases to form a non-fluorescent 2′,7′-dichlorofluorescin (DCFH). The DCFH is subsequently oxidated by H2O2 to form a fluorescent 2′,7′-dichlorofluorescein (DCF), and then accumulated in a mitochondria. […] The HaCaT cells are subsequently incubated with or without the ergothioneine, and then maintained at 37° C. in a humidified atmosphere of 5% CO2 for 24 hours, wherein the concentration of the ergothioneine is 500 nM. Next, the HaCaT cells are washed with PBS three times, and then irradiated with the UVA (15 J/cm^2). After the UVA irradiation, the PBS is replaced with 1 mL of HDCF-DA (10 μM) in each well to react at 37° C. in the dark for 30 minutes. After the reaction, the fluorescent dye is removed, and the HaCaT cells are washed with PBS thrice to remove the remaining fluorescent dye. The intracellular ROS, as indicated by DCF fluorescence, is measured with the fluorescence microscope and photographed.
# [2] = test system: UVA-irradiated HaCaT cells; assay: Western blot of apoptosis-related proteins (Caspase-3, Caspase-9, Bax, Bcl-2); details: 125-500 nM 24 hours prior to UVA 15 J/cm^2, 4 hours
# Protocol: The apoptosis can induce DNA double-strand breaks to generate a DNA fragment, To examine the effect of the ergothioneine on the UVA-induced apoptosis, an apoptotic cell death is measured using a terminal deoxyucleotidyl transferase-meditated dUTP-fluorescein nick end-labeking (TUNEL) assay, and protein expressions of apoptosis-related proteins, Caspase-3, Caspase-9, Bax and Bcl-2, are measured using a Western blot analysis. Therefore, the aforementioned methods in this example can analyze whether pretreating with the ergothioneine improves the UVA-induced apoptosis. […] After incubation, the HaCaT cells are exposed to the UVA (15 J/cm^2), and then incubated for 4 hours. Then, the protein expressions of Caspase-3, Caspase-9, Bax and Bcl-2 are measured using the Western blot analysis. FIG. 6 illustrates the effect of the ergothioneine on the protein expressions of apoptosis-related proteins of the UVA-irradiated HaCaT cells. FIG. 6-(A) represents the Western blot analysis results. FIG. 6-(B) is the quantitative diagram of the protein expressions of Caspase-3 and Caspase-9. FIG. 6-(C) is the quantitative diagram of a Bax/Bcl-2 ratio.
# Nrf2 [3] = assay: Nrf2 nuclear translocation (Western blot of cytosolic and nuclear Nrf2, immunofluorescence staining); details: for nuclear Nrf2 protein expression / cytosolic Nrf2 protein expression: Western blot
# Protocol: This example next investigates the effect of the ergothioneine on the Nrf2 nuclear translocation. The HaCat cells are pretreated with the ergothioneine for 24 hours, and then exposed to 15 J/cm^2 UVA for 1 hour. The protein expressions of a cytosolic Nrf2 and a nuclear Nrf2 are detected by the Western blot analysis, and a nuclear import of Nrf2 of the HaCaT cell is monitored by an immunofluorescence staining.
# FIG. 9 illustrates the effect of the ergothioneine on the protein expressions of the cytosolic Nrf2 and the nuclear Nrf2 of the UVA-irradiated HaCaT cells. FIG. 9-(A) represents the Western blot analysis result. FIG. 9-(B) is the fluorescent photomicrograph of the immunofluorescence staining (200× magnifications). […] In FIG. 9-(B), the nucleus is labelled with 4′,6-diamidino-2-phenylindole (DAPI), and the Nrf2 is labelled with green fluorescence to measure the expression and a localization of the Nrf2.
# Nrf2 [4] = assay: Western blot in Nrf2 knockdown HaCaT cells (siRNA transfection); details: Nrf2 siRNA transfected cells, 500 nM ergothioneine 24 hours
# From the text: The Nrf2 is an important transcription factor, the downstream antioxidant enzymes are regulated by the Nrf2 transcription gene. To examine protective effects of the ergothioneine on the HaCaT cells indeed through the Nrf2 activation, we developed an Nrf2 gene knockdown model in the HaCaT cells by a siRNA transfection in this example. Then, the expression of the downstream antioxidant gene is observed to investigate whether the protective properties of the ergothioneine will be affected.
# (§1) The siRNA transfection includes steps as follows. The HaCaT cells are seeded in a 6-well plate with 4×10^5 cells/well and then maintained at 37° C. in the humidified atmosphere of 5% CO2 untill the time of the transfection. The day after reaching 40-60% confluence, the culture medium is replaced with 1 mL of FBS-free and antibiotic-free culture medium in each well, and the HaCaT cells are transfected with a siNrf2 or a control siRNA by using Lipofectamine 2000 (Invitrogen, U.S.A.) for 4-6 hours. After the incubation for 4-6 hours, the HaCaT cells are washed with the culture medium supplemented with 10% FBS 2-3 times, and then cultured in the culture medium supplemented with 10% FBS for 12-16 hours.
# After the siRNA transfection, the HaCaT cells are treated with 500 nM ergothioneine for 24 hours. After the ergothioneine treatment, the HaCaT cells are subjected to analyses of the protein express on of the Nrf2 in 1 hour post-treatment and the protein expressions of HO-1 γ-GCLC and NQO-1 in 4 hours post-treatment by the Western blot analysis. FIG. 13-(A) illustrates the effect of the ergothioneine on protein expression of the Nrf2 in Nrf2 knockdown HaCaT cells by using the siRNA transfection.
# [5] = test system: Nrf2 knockdown HaCaT cells; assay: TUNEL apoptosis in siRNA-transfected HaCaT cells
# Protocol: as §1
# [6] = ergothioneine alone, vs control
smiles,measurement,setting,value
"C[N+](C)(C)[C@@H](Cc1c[nH]c(=S)[nH]1)C(=O)[O-] [ergothioneine, 2-mercapto histidine trimethylbetain]",DCF fluorescence (UVA-induced ROS generation),[1]; 500 nM 24 hours prior to 15 J/cm^2 UVA,ignificantly decreased
same,ROS generation,"[1]; 500 nM alone, no UVA",non-effect
same,Bax/Bcl-2 ratio,[2],significantly reduced
same,protein expression of Caspase-3,[2],significantly reduced
same,protein expression of Caspase-9,[2],significantly reduced
same,nuclear Nrf2 protein expression,"Nrf2 [3]; ergothioneine 24 hours prior to 15 J/cm^2 UVA, 1 hour",significantly increased
same,fluorescence intensity of the Nrf2,"Nrf2 [3]; ergothioneine alone, immunofluorescence staining",slightly increased
same,cytosolic Nrf2 protein expression,Nrf2 [3]; [6],significantly decreased
same,nuclear Nrf2 protein expression,Nrf2 [3]; [6],slightly increased
same,fluorescence intensity of the nuclear Nrf2,"Nrf2 [3]; ergothioneine prior to UVA irradiation, immunofluorescence staining",pronounced fluorescence intensity of the nuclear Nrf2
same,cytosolic Nrf2 protein expression,"Nrf2 [3]; ergothioneine prior to UVA irradiation, vs control",significantly decreased
same,expression of HO-1,Nrf2 [4],not shown the increased expression
same,expression of NQO-1,Nrf2 [4],not shown the increased expression
same,expression of γ-GCLC,Nrf2 [4],not shown the increased expression
same,UVA-induced apoptosis (TUNEL),"[5]; Nrf2 siRNA, ergothioneine pretreatment, UVA",unable to improve the UVA-induced apoptosis
same,apoptosis (TUNEL),"[5]; control siRNA, ergothioneine prior to UVA, vs UVA alone",significantly decreased
